According to US20100093700A1, “Methods of Treating Mood Disorders” (priority 2007, published 2010):

Columns and labels:
immobility [1] = experiment: Mouse forced swim test (FST); type: in vivo; conditions: 15 minutes prior
Description: The mouse forced swim test (FST) has been used to assess antidepressant potential of novel compounds (Porsolt; Lucki). Methods: Mice were placed in cylinders of water (25.0° C.±1.5° C.) for 6 minutes. The amount of immobility was quantified during the last 4 min of each session. The experimental observer was blind to the treatment conditions. […] Imipramine 45.0 mg/kg and citalopram 15.0 mg/kg were measured as the salt and administered ip 60 minutes prior to the behavioral session.

D2 receptors = D2 receptors (Homo sapiens, UniProt P14416); experiment: PET scans of primate subjects, D2; type: in vivo; conditions: preliminary PET
[2] = system: Adrenergic α1* Non-Selective; experiment: Radioligand binding 203500 Adrenergic α1 Non-Selective; conditions: rat
Source text: (§1) Receptor binding methods, α-adrenergic nonselective, are provided below.

apomorphine climbing = experiment: Standard apomorphine climbing mouse assay; type: in vivo; conditions: mice, p.o.
Source text: (§2) An assessment of dopamine antagonism was made in rodent models.

5HT Transporter = molecular target: T1, 5HT Transporter (Homo sapiens, UniProt P31645); experiment: PET scans of primate subjects, 5HT Transporter; type: in vivo; conditions: preliminary PET
T1 construct: from tissue; host or cells: brain of living primates (PET)
T1 sequence (P31645 whole entry, species assumed): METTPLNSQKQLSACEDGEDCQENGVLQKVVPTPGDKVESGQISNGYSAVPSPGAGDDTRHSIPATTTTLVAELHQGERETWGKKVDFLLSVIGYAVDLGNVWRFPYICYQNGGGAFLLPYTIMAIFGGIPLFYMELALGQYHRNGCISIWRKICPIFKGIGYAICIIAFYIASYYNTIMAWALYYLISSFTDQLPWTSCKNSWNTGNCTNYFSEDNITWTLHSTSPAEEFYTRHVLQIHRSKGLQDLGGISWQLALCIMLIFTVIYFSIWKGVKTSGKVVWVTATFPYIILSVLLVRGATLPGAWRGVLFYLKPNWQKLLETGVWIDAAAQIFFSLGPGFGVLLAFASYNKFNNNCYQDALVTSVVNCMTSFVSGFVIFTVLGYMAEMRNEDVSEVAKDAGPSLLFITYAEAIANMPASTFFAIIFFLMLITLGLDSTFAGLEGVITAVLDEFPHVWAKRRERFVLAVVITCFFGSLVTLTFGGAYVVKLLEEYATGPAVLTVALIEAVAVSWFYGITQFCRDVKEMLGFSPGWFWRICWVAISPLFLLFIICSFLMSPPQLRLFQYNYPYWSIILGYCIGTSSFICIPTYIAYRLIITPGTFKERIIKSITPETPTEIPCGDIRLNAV
Source text: (§3) The compound of Formula I is a dibenzothiazepine that has shown antidopaminergic activity.

5-HT2A receptors = molecular target: T2, 5-HT2A receptors (Homo sapiens, UniProt P28223); experiment: PET scans of primate subjects, 5-HT2A; type: in vivo; conditions: preliminary PET
T2 construct: from tissue; host or cells: brain of living primates (PET)
T2 sequence (P28223 whole entry): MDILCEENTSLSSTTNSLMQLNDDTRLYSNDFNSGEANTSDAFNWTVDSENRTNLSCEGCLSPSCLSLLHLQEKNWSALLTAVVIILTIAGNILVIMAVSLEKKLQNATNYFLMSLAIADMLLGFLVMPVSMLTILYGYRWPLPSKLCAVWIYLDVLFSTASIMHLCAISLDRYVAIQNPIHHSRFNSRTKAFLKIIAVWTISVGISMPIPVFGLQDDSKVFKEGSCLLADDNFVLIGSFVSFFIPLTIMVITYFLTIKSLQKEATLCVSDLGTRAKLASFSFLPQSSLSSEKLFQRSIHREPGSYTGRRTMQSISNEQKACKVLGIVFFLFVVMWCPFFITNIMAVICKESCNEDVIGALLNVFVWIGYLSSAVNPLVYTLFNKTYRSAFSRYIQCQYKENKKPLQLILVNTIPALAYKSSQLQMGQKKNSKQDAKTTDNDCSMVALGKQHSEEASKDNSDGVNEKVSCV
Source text: as §3

immobility [3] = experiment: Tail suspension test; type: in vivo, mice; conditions: for reduction of immobility relative to vehicle control group: p<0.01
Description: In a first experiment, mice (n−10/group) were treated with vehicle, 2.0, 5.0, or 10.0 mg/kg of 11-piperazin-1-yldibenzo[b,f][1,4]thiazepine s.c. 15 minutes prior to the test session. Mice were suspended from their tails for 7 minutes. During the last 5 minutes of the test, the duration of immobility was recorded. In a second experiment, mice (n=10/group) were treated with vehicle, 30 mg/kg 11-piperazin-1-yldibenzo[b,f][1,4]thiazepine, or 30 mg/kg fluoxetine p.o. 60 minutes prior to the test session. Mice were suspended from their tails for 7 minutes. During the last 5 minutes of the test, the duration of immobility was recorded.

Brain exposure in rats = type: in vivo; conditions: one hour after 30 μmol/kg po
Description: Brain exposure was measured in rats. For concentrations of 11-piperazin-1-yldibenzo[b,f][1,4]thiazepine in brain, rats were dosed either po or iv (n=3 per dose route). At one hour after compound administration, blood and brain samples were obtained and then processed for analysis using HPLC/MS to measure concentrations of 11-piperazin-1-yldibenzo[b,f][1,4]thiazepine.

[4] = Oral bioavailability in dogs; type: in vivo; conditions: dog, plasma, Beagle dogs
[5] = molecular target: Transporter, Norepinephrine (NET) (Homo sapiens, UniProt P23975); experiment: Radioligand binding assay, norepinephrine transporter
Chain of Transporter, Norepinephrine (NET) (P23975 whole entry): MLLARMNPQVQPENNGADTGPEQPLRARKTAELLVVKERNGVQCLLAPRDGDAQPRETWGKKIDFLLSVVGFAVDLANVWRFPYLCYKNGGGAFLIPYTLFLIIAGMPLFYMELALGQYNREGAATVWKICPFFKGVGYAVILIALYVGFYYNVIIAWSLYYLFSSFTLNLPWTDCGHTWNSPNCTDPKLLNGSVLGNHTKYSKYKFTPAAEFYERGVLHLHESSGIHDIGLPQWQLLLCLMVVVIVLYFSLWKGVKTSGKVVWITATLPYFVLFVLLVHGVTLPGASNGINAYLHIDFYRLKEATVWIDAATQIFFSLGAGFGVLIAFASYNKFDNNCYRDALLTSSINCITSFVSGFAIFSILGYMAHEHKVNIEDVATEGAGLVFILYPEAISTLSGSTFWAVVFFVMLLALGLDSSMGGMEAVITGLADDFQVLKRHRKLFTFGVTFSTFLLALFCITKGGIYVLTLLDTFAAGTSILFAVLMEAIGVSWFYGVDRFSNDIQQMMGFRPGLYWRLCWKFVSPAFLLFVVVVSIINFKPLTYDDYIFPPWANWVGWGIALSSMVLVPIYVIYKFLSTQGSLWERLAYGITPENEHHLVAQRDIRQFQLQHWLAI
Description: The following examples set forth parameters for the radioligand binding assay that was carried out.

[6] = system: D-amphetamine locomotor activity; experiment: D-amphetamine locomotor activity test; type: in vivo, rat; conditions: rats, s.c., freebase
Source text: as §2

Adrenergic α1D = molecular target: T3, Adrenergic α1D (Homo sapiens, UniProt P25100); experiment: Radioligand binding 203400 Adrenergic α1D; conditions: hum
T3 construct: host or cells: HEK-293
T3 sequence (P25100 whole entry): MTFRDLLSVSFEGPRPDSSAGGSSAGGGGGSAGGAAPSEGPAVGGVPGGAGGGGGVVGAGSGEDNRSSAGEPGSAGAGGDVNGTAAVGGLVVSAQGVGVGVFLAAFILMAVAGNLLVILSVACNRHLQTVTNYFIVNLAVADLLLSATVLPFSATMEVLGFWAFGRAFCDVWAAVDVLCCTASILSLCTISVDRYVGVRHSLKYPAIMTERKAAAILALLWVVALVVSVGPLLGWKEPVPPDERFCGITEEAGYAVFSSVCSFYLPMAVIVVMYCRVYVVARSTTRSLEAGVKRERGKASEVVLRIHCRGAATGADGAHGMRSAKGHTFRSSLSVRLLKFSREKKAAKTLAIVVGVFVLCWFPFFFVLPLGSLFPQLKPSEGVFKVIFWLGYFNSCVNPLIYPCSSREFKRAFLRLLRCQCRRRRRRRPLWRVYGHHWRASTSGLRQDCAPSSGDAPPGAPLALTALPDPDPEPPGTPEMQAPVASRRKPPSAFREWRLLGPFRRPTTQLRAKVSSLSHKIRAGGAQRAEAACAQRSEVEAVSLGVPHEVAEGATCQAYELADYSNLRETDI
Source text: (§4) Receptor binding methods, α-adrenergic subtype specific, are provided below.

Adrenergic α1B = molecular target: T4, Adrenergic α1B (Rattus norvegicus, UniProt P15823); experiment: Radioligand binding 203200 Adrenergic α1B
T4 construct: 203200
T4 sequence (P15823 whole entry): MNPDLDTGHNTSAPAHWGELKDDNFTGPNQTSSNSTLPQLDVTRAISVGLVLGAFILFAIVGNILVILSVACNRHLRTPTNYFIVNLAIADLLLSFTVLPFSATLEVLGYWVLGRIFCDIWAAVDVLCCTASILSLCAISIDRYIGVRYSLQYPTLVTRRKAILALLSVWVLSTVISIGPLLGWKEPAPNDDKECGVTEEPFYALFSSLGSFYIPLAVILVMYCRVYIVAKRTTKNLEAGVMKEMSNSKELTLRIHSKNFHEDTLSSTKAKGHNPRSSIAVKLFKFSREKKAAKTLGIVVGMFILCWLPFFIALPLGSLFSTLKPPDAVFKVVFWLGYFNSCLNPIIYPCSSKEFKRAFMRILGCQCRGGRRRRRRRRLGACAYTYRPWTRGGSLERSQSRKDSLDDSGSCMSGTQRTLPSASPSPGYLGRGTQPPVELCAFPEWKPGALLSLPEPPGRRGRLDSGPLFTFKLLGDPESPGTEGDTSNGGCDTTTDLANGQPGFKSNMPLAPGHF
Source text: as §4

[7] = system: Adrenergic α2* Non-Selective; experiment: Radioligand binding 203900 Adrenergic α2 Non-Selective; conditions: rat
Source text: as §1

Adrenergic α2B = Adrenergic α2B (Homo sapiens, UniProt P18089); experiment: Radioligand binding Adrenergic α2B; conditions: hum
Chain of Adrenergic α2B (P18089 whole entry): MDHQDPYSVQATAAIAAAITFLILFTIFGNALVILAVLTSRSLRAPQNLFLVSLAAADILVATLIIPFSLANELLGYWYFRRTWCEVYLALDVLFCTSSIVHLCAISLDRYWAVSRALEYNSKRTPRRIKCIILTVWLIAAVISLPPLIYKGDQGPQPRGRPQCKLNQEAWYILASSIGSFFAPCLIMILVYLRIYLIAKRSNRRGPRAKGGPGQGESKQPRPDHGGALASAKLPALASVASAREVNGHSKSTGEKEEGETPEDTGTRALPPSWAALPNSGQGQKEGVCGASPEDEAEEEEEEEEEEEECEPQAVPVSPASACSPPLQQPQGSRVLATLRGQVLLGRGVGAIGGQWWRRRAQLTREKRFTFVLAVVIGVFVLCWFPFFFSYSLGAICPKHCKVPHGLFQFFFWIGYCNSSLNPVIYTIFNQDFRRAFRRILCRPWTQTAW

Adrenergic α1A = molecular target: T5, Adrenergic α1A (Rattus norvegicus, UniProt P43140); experiment: Radioligand binding 203100 Adrenergic α1A
T5 construct: 203100
T5 sequence (P43140 whole entry): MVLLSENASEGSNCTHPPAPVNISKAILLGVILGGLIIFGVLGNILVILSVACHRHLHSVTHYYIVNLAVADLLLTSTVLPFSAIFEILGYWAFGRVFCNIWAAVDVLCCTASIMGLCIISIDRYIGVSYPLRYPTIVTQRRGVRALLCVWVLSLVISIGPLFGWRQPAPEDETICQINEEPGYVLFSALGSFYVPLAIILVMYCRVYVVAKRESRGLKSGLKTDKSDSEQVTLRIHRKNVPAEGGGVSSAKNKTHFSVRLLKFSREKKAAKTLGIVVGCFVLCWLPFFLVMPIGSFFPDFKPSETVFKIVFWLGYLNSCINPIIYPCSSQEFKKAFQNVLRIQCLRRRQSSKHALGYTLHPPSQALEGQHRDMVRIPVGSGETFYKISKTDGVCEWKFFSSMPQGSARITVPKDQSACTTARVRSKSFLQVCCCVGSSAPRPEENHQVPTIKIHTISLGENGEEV
Source text: as §4

Uptake, Norepinephrine = Uptake, Norepinephrine (Homo sapiens, UniProt P23975); experiment: Functional assay measuring norepinephrine uptake; type: cell-based; conditions: [3H]Norepinephrine uptake, MDCK cells; read-out: EC50/IC50
Chain of Uptake, Norepinephrine (P23975 whole entry): as the sequence (P23975 whole entry) above
Description: The following examples set forth parameters for the functional assay measuring norepinephrine uptake that was carried out.

Adrenergic α2C = Adrenergic α2C (Homo sapiens, UniProt P18825); experiment: Radioligand binding Adrenergic α2C; conditions: hum
[8] = Oral bioavailability in monkeys; type: in vivo; conditions: cynomolgus monkey, plasma
D1 receptors = molecular target: T6, D1 receptors (Homo sapiens, UniProt P21728); experiment: PET scans of primate subjects, D1; type: in vivo; conditions: preliminary PET
T6 construct: from tissue; host or cells: brain of living primates (PET)
T6 sequence (P21728 whole entry): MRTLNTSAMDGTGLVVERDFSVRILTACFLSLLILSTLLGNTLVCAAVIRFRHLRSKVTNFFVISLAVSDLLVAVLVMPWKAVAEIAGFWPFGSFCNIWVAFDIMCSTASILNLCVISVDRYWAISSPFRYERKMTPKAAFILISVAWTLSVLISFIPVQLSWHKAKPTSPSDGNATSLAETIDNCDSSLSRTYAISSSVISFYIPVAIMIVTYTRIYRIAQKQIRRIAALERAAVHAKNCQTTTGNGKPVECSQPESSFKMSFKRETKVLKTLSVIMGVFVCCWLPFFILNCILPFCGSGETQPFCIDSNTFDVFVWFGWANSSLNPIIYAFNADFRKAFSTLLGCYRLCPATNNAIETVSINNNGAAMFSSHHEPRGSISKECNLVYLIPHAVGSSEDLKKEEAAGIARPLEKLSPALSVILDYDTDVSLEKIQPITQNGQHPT
Source text: as §3

5-HT1A receptors = molecular target: T7, 5-HT1A receptors (Homo sapiens, UniProt P08908); experiment: PET scans of primate subjects, 5-HT1A; type: in vivo; conditions: preliminary PET
T7 construct: from tissue; host or cells: brain of living primates (PET)
Source text: as §3

Adrenergic α2A = Adrenergic α2A (Homo sapiens, UniProt P08913); experiment: Radioligand binding Adrenergic α2A; conditions: hum
dopamine D1 receptor = molecular target: T8, dopamine D1 receptor (Rattus norvegicus, UniProt P18901); experiment: In-vitro binding, dopamine D1 receptor; conditions: dihydrochloride salt; read-out: binding affinity for dopamine D1 receptor (K1)
T8 construct: from tissue; host or cells: brain

dopamine D2 receptor = molecular target: T9, dopamine D2 receptor (Rattus norvegicus, UniProt P61169); experiment: In-vitro binding, dopamine D2 receptor; conditions: dihydrochloride salt; read-out: binding affinity for dopamine D2 receptor (K1)
T9 construct: relative to dopamine (D2) receptors in the brain; from tissue; host or cells: brain
T9 sequence (P61169 whole entry): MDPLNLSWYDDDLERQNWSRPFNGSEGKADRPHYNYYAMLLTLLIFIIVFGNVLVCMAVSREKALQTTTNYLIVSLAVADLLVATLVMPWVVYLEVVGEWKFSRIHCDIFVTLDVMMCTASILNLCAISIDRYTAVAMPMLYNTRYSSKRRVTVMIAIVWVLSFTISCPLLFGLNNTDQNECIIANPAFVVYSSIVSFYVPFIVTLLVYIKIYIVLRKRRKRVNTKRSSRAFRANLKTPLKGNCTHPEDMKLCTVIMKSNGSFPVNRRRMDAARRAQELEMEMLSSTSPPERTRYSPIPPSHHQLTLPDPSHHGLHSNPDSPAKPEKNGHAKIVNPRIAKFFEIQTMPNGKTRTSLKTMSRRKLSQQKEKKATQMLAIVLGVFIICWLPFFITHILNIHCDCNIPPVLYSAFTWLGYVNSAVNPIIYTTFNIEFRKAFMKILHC

[9] = molecular target: brain serotonin 5-HT2 receptor (UniProt P14842); experiment: In-vitro binding, brain serotonin 5-HT2 receptor; conditions: dihydrochloride salt; read-out: binding affinity for brain serotonin 5-HT2 receptor (K1)
[10] = 30 mg/kg p.o., 60 minutes prior

With `OCCOCCN1CCN(C2=Nc3ccccc3Sc3ccccc32)CC1` [Quetiapine, quetiapine, reference compound] the “effect on immobility in FST” value (immobility [1]; 5.0, 10.0 and 20.0 mg/kg sc) was “no effect”.

In the case of `c1ccc2c(c1)N=C(N1CCNCC1)c1ccccc1S2` [11-piperazin-1-yldibenzo[b,f][1,4]thiazepine], the “receptor occupancy (PET), D2” value (D2 receptors) is reported as “occupies”, the “% INH.” value ([2]; 0.1 μM) is reported as 61% and the IC50 [2] is reported as 69.3 nM. For the same compound, the Ki [2] was 37.2 nM, the “in vivo antipsychotic activity, apomorphine mouse assay” value (apomorphine climbing) was “not shown to be efficacious” and the “occupancy (PET), 5HT Transporter” value (5HT Transporter) was “occupies”. For the same compound, the “receptor occupancy (PET), 5-HT2A” value (5-HT2A receptors) was “occupies”, the “reduction of immobility relative to vehicle control group” value (immobility [3]; 10.0 mg/kg s.c.) was “more than ½” and the “reduction of immobility relative to vehicle control group” value (immobility [3]; [10]) was “more than ½”. For the same compound, the “effect on duration of immobility” value (immobility [3]; 2.0, 5.0 or 10.0 mg/kg s.c., 15 minutes prior) was “reduced immobility at all doses tested”, the “average concentration in brain tissue” value (Brain exposure in rats) was 2240 nmol/g and the bioavailability [4] was 42%. The inhibition at 10 µM [5] was 97%, the “in vivo antipsychotic activity, D-amphetamine locomotor activity test” value [6] was “not found to be efficacious” and the “in vivo antipsychotic activity, D-amphetamine locomotor activity test” value ([6]; listed as Formula I) was “not shown to be efficacious”. The “effect on immobility in FST” value (immobility [1]; 10.0 mg/kg sc) was “antidepressant effects in this assay comparable to imipramine”, the “n (Hill coefficient)” value (Adrenergic α1D) was 0.984 ± 0.111 and the “n (Hill coefficient)” value (Adrenergic α1B) was 1.1 ± 0.024. For the same compound, the “% INH.” value ([7]; 10 μM) was 73%, the IC50 [7] was 1410 nM and the Ki [7] was 1290 nM. For the same compound, the “n (Hill coefficient)” value (Adrenergic α2B) was 0.902 ± 0.055, the “n (Hill coefficient)” value (Adrenergic α1A) was 1.03 ± 0.089 and the IC50 (Uptake, Norepinephrine) was 13.4 nM. The “n (Hill coefficient)” value (Adrenergic α2C) was 1.1 ± 0.079, the bioavailability [8] was 37% and the “receptor occupancy (PET), D1” value (D1 receptors) was “occupies”. For the same compound, the “receptor occupancy (PET), 5-HT1A” value (5-HT1A receptors) was “occupies” and the “n (Hill coefficient)” value (Adrenergic α2A) was 0.969 ± 0.012.

In the case of `CNCCC(Oc1ccc(C(F)(F)F)cc1)c1ccccc1` (centres unmarked) [fluoxetine, reference compound], the “reduction of immobility relative to vehicle control group” value (immobility [3]; [10]) is reported as “more than ½”.

With `Cl.Cl.c1ccc2c(c1)N=C(N1CCNCC1)c1ccccc1S2` [11-piperazin-1-yldibenzo[b,f][1,4]thiazepine, dihydrochloride salt] the Ki (dopamine D1 receptor) was 1490 nM, the “in vivo antipsychotic activity, apomorphine mouse assay” value (apomorphine climbing) was “not found to be efficacious” and the Ki (dopamine D2 receptor) was 234 nM. For the same compound, the Ki [9] was 27 nM.
